Assay results taken from ChEMBL document CHEMBL1152110, “Tetraazaacenaphthene and tetraazaphenalene derivatives: A new class of hepatoprotectants: Part IV” (1995).

What was measured:
Type in all cases: functional
Rattus norvegicus [1] = assay: Hepatoprotective activity against thioacetamide-induced toxicity in rats at a dose of 6 mg/Kg dose (p.o. x 7 days), expressed as % protection afforded in glutamate pyruvate transaminase (GPT) levels
Rattus norvegicus [2] = assay: Hepatoprotective activity against thioacetamide-induced toxicity in rats at a dose of 6 mg/Kg dose (p.o. x 7 days), expressed as % protection afforded in serum bilirubin levels
Rattus norvegicus [3] = assay: Hepatoprotective activity against thioacetamide-induced toxicity in rats at a dose of 6 mg/Kg dose (p.o. x 7 days) expressed as % protection afforded in […] (ALP) levels
Rattus norvegicus [4] = assay: Hepatoprotective activity against thioacetamide-induced toxicity in rats at a dose of 6 mg/Kg dose (p.o. x 7 days), expressed as % protection afforded in glutamate oxaloacetate transaminase (GOT) levels
Rattus norvegicus [5] = assay: Hepatoprotective activity against thioacetamide-induced toxicity in rats at a dose of 6 mg/Kg dose (p.o. x 7 days), expressed as % protection afforded in […] (ALP) levels

Row | Compound | Protection (Rattus norvegicus [1]) [%] | Protection (Rattus norvegicus [2]) [%] | Protection (Rattus norvegicus [3]) [%] | Protection (Rattus norvegicus [4]) [%] | Protection (Rattus norvegicus [5]) [%]
1 | CCN1C(=N)C2C(=O)N(CC)C(=S)N3CCN(C1=S)C23 (stereo unspecified) | 87 | 57 | 17 | 50 | 
2 | SILYMARIN | 47 | 61 | 47 | 50 | 
3 | CCO/C(O)=C(\C1=NCCCN1)c1nnc(N)s1 | 50 | 22 | 38 | 26 | 
4 | CCN1C(=O)C2C(=O)N(CC)C(=S)N3CCN(C1=S)C23 (stereo unspecified) | 34 | 31 | 22 | 20 | 
5 | Cc1ccccc1N1C(=O)C2C(=O)N(c3ccccc3C)C(=O)N3CCN(C1=O)C23 (stereo unspecified) | 15 | 18 | 16 | 18 | 
6 | CCO/C(O)=C(\C1=NCCN1)c1nnc(N)s1 | 51 | 53 |  | 33 | 19
7 | CCN1C(=N)C2C(=O)N(CC)C(=S)N3CCCN(C1=S)C23 (stereo unspecified) | 50 | 50 | 48 | 40 | 
8 | CC/N=C(/S)N1CCn2c1c(C#N)c(=O)n(CC)c2=S | 70 | 60 | 56 | 31 | 
9 | O=C1C2C(=O)N(c3ccccc3)C(=S)N3CCN(C(=S)N1c1ccccc1)C23 (stereo unspecified) | 18 | 25 | 20 | 27 | 
